Data taken from ChEMBL document CHEMBL2029335, “Synthesis, X-ray analysis, and biological evaluation of a new class of stereopure lactam-based HIV-1 protease inhibitors” (J Med Chem, 2012).
pEC50, pKi: −log10 of the molar value.

How the values were obtained:
[1] = system: Human immunodeficiency virus 1; assay: Antiviral activity against HIV1 infected in human MT4 cells; format: functional, organism-based; details: Human immunodeficiency virus 1, MT4
MT4 = assay: Cytotoxicity against human MT4 cells after 5 days by XTT assay; format: cell-based; details: mt4, 120 h
Protease = Protease (Human immunodeficiency virus 1, UniProt Q9YQ12); assay: Inhibition of HIV1 protease expressed in Escherichia coli using DABCYL-Abu-Ser-Gln-ASN-Tyr-Pro-Ile-Val-Gln-EDANS as substrate preincubated for 20 mins measured for 45 mins by fluorometry
Liver microsomes = assay: (§1) Intrinsic clearance in human liver microsomes at 1 uM after 30 mins by LC-MS/MS analysis; format: ADME, Microsome; details: microsomes, 0.5 h, 1 µM
Caco-2 = assay: Apparent permeability from apical to basolateral side in human Caco2 cells after 60 mins; format: ADME, cell-based; details: caco-2, 1 h
[2] = as §1; format: ADME, Microsome; details: liver microsomes, read-out: CLH

Sequence of Protease (Q9YQ12 whole entry): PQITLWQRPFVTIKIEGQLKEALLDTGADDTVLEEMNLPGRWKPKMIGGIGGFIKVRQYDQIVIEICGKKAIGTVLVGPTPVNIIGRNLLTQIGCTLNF

Row | Structure (SMILES) | pEC50 [1] | CC50 (MT4) [nM] | pKi (Protease) | CLH (Liver microsomes) [µL/min/mg] | Papp (Caco-2) [×10⁻⁶ cm/s] | microsomal CLint at 1 µM [2] [µL/min/mg]
1 | COC(=O)N[C@H](C(=O)NN(CC[C@@]1(Cc2ccccc2)C(=O)N([C@H]2c3ccccc3C[C@H]2O[Si](C)(C)C(C)(C)C)C[C@H]1O[Si](C)(C)C(C)(C)C)Cc1ccc(Br)cc1)C(C)(C)C | < 5.00 | > 50000 | 6.12 | – | – | –
2 | COC(=O)N[C@H](C(=O)NN(CC[C@@]1(Cc2ccccc2)C(=O)N([C@H]2c3ccccc3C[C@H]2O[Si](C)(C)C(C)(C)C)C[C@@H]1O[Si](C)(C)C(C)(C)C)Cc1ccc(Br)cc1)C(C)(C)C | < 5.00 | – | 6.10 | – | – | –
3 | COC(=O)N[C@H](C(=O)NN(CC[C@@]1(Cc2ccccc2)C(=O)N([C@H]2c3ccccc3C[C@H]2O)C[C@H]1O)Cc1ccc(Br)cc1)C(C)(C)C | 6.19 | > 50000 | 8.68 | > 300 | – | –
4 | COC(=O)N[C@H](C(=O)NN(CC[C@]1(Cc2ccccc2)C(=O)N([C@H]2c3ccccc3C[C@H]2O)C[C@H]1O)Cc1ccc(Br)cc1)C(C)(C)C | < 5.00 | 15000 | 5.92 | – | – | –
5 | COC(=O)N[C@H](C(=O)NN(CC[C@]1(Cc2ccccc2)C(=O)N([C@H]2c3ccccc3C[C@H]2O)C[C@@H]1O)Cc1ccc(Br)cc1)C(C)(C)C | < 5.00 | – | 6.03 | – | – | –
6 | COC(=O)N[C@H](C(=O)NN(CC[C@@]1(Cc2ccccc2)C(=O)N([C@H]2c3ccccc3C[C@H]2O)C[C@@H]1O)Cc1ccc(Br)cc1)C(C)(C)C | 6.46 | – | 8.19 | – | 17 | –
7 | COC(=O)N[C@H](C(=O)NN(CC[C@@]1(Cc2ccccc2)C(=O)N([C@H]2c3ccccc3C[C@H]2O)C[C@H]1O)Cc1ccc(-c2ccccn2)cc1)C(C)(C)C | 6.72 | 28000 | 8.77 | – | – | –
8 | COC(=O)N[C@H](C(=O)NN(CC[C@@]1(Cc2ccccc2)C(=O)N([C@H]2c3ccccc3C[C@H]2O)C[C@@H]1O)Cc1ccc(-c2ccccn2)cc1)C(C)(C)C | 6.74 | > 50000 | 8.70 | – | – | –
9 | COC(=O)N[C@H](C(=O)NN(CC[C@@]1(Cc2ccccc2)C(=O)N([C@H]2c3ccccc3C[C@H]2O)C[C@H]1O)Cc1ccc(-c2cccnc2)cc1)C(C)(C)C | 7.40 | > 50000 | 9.10 | 230 | 3.8 | –
10 | COC(=O)N[C@H](C(=O)NN(CC[C@@]1(Cc2ccccc2)C(=O)N([C@H]2c3ccccc3C[C@H]2O)C[C@@H]1O)Cc1ccc(-c2cccnc2)cc1)C(C)(C)C | 7.00 | – | 9.15 | 120 | 5.1 | –
11 | COC(=O)N[C@H](C(=O)NN(CC[C@@]1(Cc2ccccc2)C(=O)N([C@H]2c3ccccc3C[C@H]2O)C[C@H]1O)Cc1ccc(-c2ccncc2)cc1)C(C)(C)C | 7.40 | > 50000 | 9.40 | – | – | –
12 | COC(=O)N[C@H](C(=O)NN(CC[C@@]1(Cc2ccccc2)C(=O)N([C@H]2c3ccccc3C[C@H]2O)C[C@@H]1O)Cc1ccc(-c2ccncc2)cc1)C(C)(C)C | 7.02 | – | 8.77 | – | – | –
13 | COC(=O)N[C@H](C(=O)NN(CCC[C@@]1(Cc2ccccc2)C(=O)N([C@H]2c3ccccc3C[C@H]2O)C[C@H]1O)Cc1ccc(Br)cc1)C(C)(C)C | 5.41 | 26000 | 7.89 | > 300 | 22 | –
14 | COC(=O)N[C@H](C(=O)NN(CCC[C@@]1(Cc2ccccc2)C(=O)N([C@H]2c3ccccc3C[C@H]2O)C[C@H]1O)Cc1ccc(-c2ccccc2)cc1)C(C)(C)C | 6.07 | 15000 | 7.92 | – | – | –
15 | COC(=O)N[C@H](C(=O)NN(CCC[C@@]1(Cc2ccccc2)C(=O)N([C@H]2c3ccccc3C[C@H]2O)C[C@H]1O)Cc1ccc(-c2cccnc2)cc1)C(C)(C)C | 5.74 | 23000 | 8.28 | 122 | 4.4 | –
16 | COC(=O)N[C@H](C(=O)NN(CCC[C@@]1(Cc2ccccc2)C(=O)N([C@H]2c3ccccc3C[C@H]2O)C[C@H]1O)Cc1ccc(-c2ccncc2)cc1)C(C)(C)C | 6.15 | 5900 | – | – | – | –
17 | COC(=O)N[C@H](C(=O)NN(CCC[C@@]1(Cc2ccccc2)C(=O)N([C@H]2c3ccccc3C[C@H]2O)C[C@H]1O)Cc1ccc(-c2ccccn2)cc1)C(C)(C)C | 5.60 | 31000 | 8.20 | 130 | 3.4 | –
18 | COC(=O)N[C@H](C(=O)NN(CCC1(Cc2ccccc2)C(=O)N([C@H]2c3ccccc3C[C@H]2O)CC1O)Cc1ccc(-c2ccncc2)cc1)C(C)(C)C (stereo not given in full) | – | – | 9.10 | – | – | –
19 | COC(=O)N[C@H](C(=O)N[C@@H](Cc1ccccc1)[C@@H](O)CN(Cc1ccc(-c2ccccn2)cc1)NC(=O)[C@@H](NC(=O)OC)C(C)(C)C)C(C)(C)C [ATAZANAVIR] | 8.41 | – | – | – | – | 90
